Consider 3 compounds from patent US20080241943A1, “Subnanomolar Precipitator of Thiophilic Metals” (The Scripps Research Institute, priority 2004, published 2008).

Each structure is given as a SMILES string.

The nature of data set [1]: Thiophilic metal precipitation by ligand, panel of metal ions. The data set is classed as physicochemical. Particulars: spectroscopic analyses; did not correlate with Ksp. The method, then:
(§1) General procedure for thiophilic metal precipitation. A 10 μL aliquot of a 200 mM stock of metal ion in water was incubated at room temperature with 200 μL of a 10 mM stock of ligand 3a in CH3CN. Red precipitates from 3a appeared upon increasing the amount of water in the final reaction mixture to over 20% (v/v). The formation of these red precipitates provided an ideal tool for verification of sample quality. Red precipitates from 3a were readily removed by triturating the precipitate with acetonitrile.

A short description of data set [2]: Thiophilic metal precipitation by ligand. The data set is classed as physicochemical. Particulars: for metal salt concentration at which precipitation was visually apparent: 10% aqueous CH3CN. The protocol:
as §1

Data set [3] in a line: Determination of the extent of metal precipitation (vapor atomic absorption of supernatant). Format: physicochemical. As to conditions: after reacting 6.7±0.01 mM Hg(OAc)2 with 6.7±0.01 mM 3a. The method, then: Determination of the extent of metal precipitation. An 167 μL aliquot of a 20 mM stock of Hg(OAc)2 in water was incubated at room temperature with 333 μL of a 10 mM stock of ligand 3 in CH3CN. Precipitation occurred immediately. After 5 minutes the sample was centrifuged for 5 min at 14,000×g. The supernatant was removed and an aliquot submitted to vapor atomic absorption analysis (Galbraith Laboratories, Knoxyille, Tenn.).

A short description of data set [4]: Heavy metal competitions (precipitation in the presence of other metal ions). The data set is classed as physicochemical. As to conditions: mixtures containing Cu^2+. The protocol: (§2) Determination of solubility products (Ksp). Weight analysis (FIG. 2A): Ksp values were determined either by weighing the amount of precipitate 4a. Scale-up was required to provide sufficient material for analysis on conventional microbalances. The following procedure was used for this analysis: a 100 μL aliquot of a 200 mM stock of metal ion in water was incubated at room temperature with 2 mL of a 10 mM stock of ligand 3a in acetonitrile. After 10 minutes the precipitate was isolated by centrifugation for 5 min at 2,000×g, washed with acetonitrile (5 ml), methanol (5 ml) and dried in vacuo. Spectrophotometric analysis (FIG. 2B): A 10 μL aliquot of a 200 mM stock of metal ion in water was added to 200 μL of a 10 mM stock of ligand 3a in acetonitrile in a spin filter (Millipore). After 10 minutes at rt, the precipitate was removed by centrifugation at 2,000×g. Spectroscopic analysis of the supernatant was performed on a conventional microarray reader (PerSeptive Biosystems CytoFluor or Perkin Elmer HST 7000 plate reader).
Heavy metal competitions. A 167 μL aliquot of a 20 mM stock of metal ion in water was incubated at room temperature with 333 μL of a 10 mM stock of ligand 3a in acetonitrile. […] The supernatant was analyzed on a PerSeptive Biosystems CytoFluor or Perkin Elmer HST 7000 plate reader using excitation at 510 nm. […]

Data set [5] is described as follows: Determination of solubility products (Ksp), reproducibility. Particulars: concentrations 1 mM-0.1 μM, pH 3-10, temperature 0-50° C. Format: physicochemical. The method, then:
as §2

Data set [6] can be described thus: Precipitation of free ligand from aqueous CH3CN. The data set is classed as physicochemical. Particulars: 10 mM 3a stock in CH3CN, room temperature. The protocol:
as §1

The conditions of data set [7]: cited from earlier work.

`S=C1SC(c2ccccc2)(c2ccccc2)c2ccccc21` [3a, 3,3-Diphenylbenzo[c]thiophene-1(3H)-thione]: the “rate of precipitation (order of metal ions)” value in data set [1] is “Hg^2+>Pb^2+>Cd^2+>(Au^3+˜Cu^2+)>(Pd^2+˜Ni^2+)>(Co^2+˜Mo^2+˜Pt^2+)”. Moreover, the “metal salt concentration at which precipitation was visually apparent” value in data set [2] (CdCl2 added to 25 μM 3a) was 50 µM; in data set [2] (Hg(OAc)2 added to 1 μM 3a) it was 2 µM; in data set [2] (Pb(OAc)2 added to 5 μM 3a) it was 10 µM. Besides, the “amount of Hg^2+ left in supernatant” value in data set [3] was determined as 0.58 ± 0.03 µM. Further, in data set [4], the “Cu^2+ tolerated in analysis of Hg^2+, Pb^2+ and Cd^2+” value turned out to be 500 equivalents. In addition, the “deviation of Ksp values” in data set [5] is no more than 1%. Moreover, the “amount of water in the final reaction mixture at which red precipitates from 3a appeared” value in data set [6] is given as “over 20 % (v/v)”.

Consider `CCCCCCCCCCc1ccc(C2(c3ccc(CCCCCCCCCC)cc3)SC(=S)c3ccccc32)cc1` [3b, 3,3-Bis(4-decylphenyl)benzo[c]thiophene-1(3H)-thione], for which the “induction time of precipitation” value in data set [2] (by Hg^2+) and in data set [2] (by Pb^2+) was greater than 5 min each time.

Consider `O=C(O)CN(CC(=O)O)c1ccc(-c2c3cc(F)c(=O)cc-3oc3cc(O)c(F)cc23)cc1OCCOc1cc([N+](=O)[O-])ccc1N(CC(=O)O)CC(=O)O` [Fluo-5N], for which, in data set [7] (at 1 μM), the “affinity to Cd^2+ relative to La^3+” value is reported as “O-fold”. In data set [7] (at 100 μM), the “affinity for La^3+ over Cd^2+” value was 2 fold.
